From US11506670B2, “Method of genome-wide direct identification of electrophile-sensing targets” (Cornell University, priority 2018, dated 2022)
“And” between values parts separate entries of the source, which are not always exact repeats. Equal entries are not always repeated.

Target: Ube2V2 (Homo sapiens, UniProt Q15819)
Assay: T-REX targeted delivery efficiency, in-gel fluorescence (Cy5 Click)
Format: cell-based
Design: the gene of interest (GOI) was PCR-amplified out from the original plasmid; expressed in transfected cells; host or cells: HEK 293T
Conditions: HEK293T, Halo-Ube2V2
Description: HEK 293T cells were maintained in 1×MEM+ Glutamax™ media supplemented with 10% FBS, 1×NEAA, 1× sodium pyruvate and 1× Pen-Strep. Cells were grown in a humidified, 5% CO2 incubator at 37° C. For in-gel fluorescence analysis and western blot, ˜0.7-0.8×10^6 HEK 293T cells were seeded in 8 cm^2 tissue culture dishes. 24 h later, cells were transfected using TransIT-2020 transfection reagent per the manufacturer's recommendation. Subsequent steps were performed under dim light. 24-36 h post transfection, monolayer of cells were treated with 25 μM Ht-PreHNE in serum-free media and incubated for 2.5 h. Cells were gently rinsed with serum-free media three times every 30 min over the next 1.5 h. Meanwhile, UV lamps were turned on 10 min prior to UV irradiation time. For samples designated for light exposure, lids were removed from the dishes and cells were placed under 365 nm UV light for 5-8 min. The cells were harvested, washed two times with ice-cold PBS and frozen in liquid nitrogen.
All steps were performed in dark or under dim light. Cells from 8 cm^2 plates were lysed in 30 μL buffer containing 50 mM HEPES (pH 7.6), 150 mM NaCl, 1% Nonidet P-40, 1× Roche cOmplete, mini, EDTA-free protease inhibitor cocktail, and 0.3 mM TCEP by rapid freeze-thaw (×3). […] Protein concentration of the clarified lysate was determined using Bradford assay. […]

Ube2V2, sequence (Q15819 whole entry): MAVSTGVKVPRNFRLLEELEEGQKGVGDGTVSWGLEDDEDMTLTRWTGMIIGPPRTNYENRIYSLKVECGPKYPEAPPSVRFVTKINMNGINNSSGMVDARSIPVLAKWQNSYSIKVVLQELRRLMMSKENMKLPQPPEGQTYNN

With `CCCCCC(O)/C=C/C=O` (stereo not shown) [HNE, 4-hydroxynonenal] the “T-REX targeted delivery efficiency” value was 15±6% and 15%.
